Data published in the supplement of paper PMC10307832.

Experiments:
Assay in all cases: relative viability (nuclei count vs DMSO), 5 days (fraction); higher = more cells survive
HOP-62 = test system: HOP-62
In short: (§1)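 Lung cancer cell lines were seeded in 1536-well plates and dosed by pin tool the next day, with either a single drug or a fixed anchor-drug dose combined with five library-drug doses (not always all listed) spaced in √10 steps. Five days later, one step fixed the cells and stained their nuclei (final 0.05% Triton X-100, 1% formaldehyde, 1 ug/ml Hoechst), and nuclei were counted on 4× images. Relative viability is the nuclei count in treated wells divided by the count in vehicle wells, and each value is the median of duplicate plates.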

NCI-H322M = test system: NCI-H322M
In short: as §1

NCI-H1755 = test system: NCI-H1755
In short: as §1

NCI-H1993 = test system: NCI-H1993
In short: as §1

PC-14 = test system: PC-14
In short: as §1

NCI-H358 = test system: NCI-H358
In short: as §1

NCI-H2170 = test system: NCI-H2170
In short: as §1

NCI-H1355 = test system: NCI-H1355
In short: as §1

NCI-H2228 = test system: NCI-H2228
In short: as §1

SK-MES-1 = test system: SK-MES-1
In short: as §1

HARA = test system: HARA
In short: as §1

NCI-H838 = test system: NCI-H838
In short: as §1

NCI-H2342 = test system: NCI-H2342
In short: as §1

NCI-H2347 = test system: NCI-H2347
In short: as §1

NCI-H1734 = test system: NCI-H1734
In short: as §1

COR-L23 = test system: COR-L23
In short: as §1

NCI-H522 = test system: NCI-H522
In short: as §1

NCI-H647 = test system: NCI-H647
In short: as §1

NCI-H2009 = test system: NCI-H2009
In short: as §1

NCI-H1793 = test system: NCI-H1793
In short: as §1

NCI-H1395 = test system: NCI-H1395
In short: as §1

COR-L 105 = test system: COR-L 105
In short: as §1

EKVX = test system: EKVX
In short: as §1

UMC-11 = test system: UMC-11
In short: as §1

SMILES: C[C@@H]1CN(CC(=O)Nc2ccc3c(c2)Cc2cccc(-c4cc(=O)cc(N5CCOCC5)o4)c2S3)C[C@H](C)O1 + Cc1nc(Nc2ncc(C(=O)Nc3c(C)cccc3Cl)s2)cc(N2CCN(CCO)CC2)n1 [Dasatinib] (partner 0.075 µM)
- relative viability (HOP-62; first compound 0.04 µM): 0.664
- relative viability (HOP-62; first compound 0.1265 µM): 0.57
- relative viability (HOP-62; first compound 0.4 µM): 0.687
- relative viability (HOP-62; first compound 4 µM): 0.518
- relative viability (NCI-H322M; first compound 0.04 µM): 0.277
- relative viability (NCI-H322M; first compound 0.1265 µM): 0.262
- relative viability (NCI-H322M; first compound 0.4 µM): 0.26
- relative viability (NCI-H322M; first compound 4 µM): 0.24
- relative viability (NCI-H1755; first compound 0.04 µM): 0.455
- relative viability (NCI-H1755; first compound 0.1265 µM): 0.397
- relative viability (NCI-H1755; first compound 0.4 µM): 0.427
- relative viability (NCI-H1755; first compound 4 µM): 0.37
- relative viability (NCI-H1993; first compound 0.04 µM): 0.643
- relative viability (NCI-H1993; first compound 0.1265 µM): 0.626
- relative viability (NCI-H1993; first compound 0.4 µM): 0.556
- relative viability (NCI-H1993; first compound 4 µM): 0.641
- relative viability (PC-14; first compound 0.04 µM): 0.286
- relative viability (PC-14; first compound 0.1265 µM): 0.254
- relative viability (PC-14; first compound 0.4 µM): 0.314
- relative viability (PC-14; first compound 4 µM): 0.147
- relative viability (NCI-H358; first compound 0.04 µM): 0.2
- relative viability (NCI-H358; first compound 0.1265 µM): 0.163
- relative viability (NCI-H358; first compound 0.4 µM): 0.144
- relative viability (NCI-H358; first compound 4 µM): 0.157
- relative viability (NCI-H2170; first compound 0.04 µM): 0.569
- relative viability (NCI-H2170; first compound 0.1265 µM): 0.581
- relative viability (NCI-H2170; first compound 0.4 µM): 0.711
- relative viability (NCI-H2170; first compound 4 µM): 0.57
- relative viability (NCI-H1355; first compound 0.04 µM): 0.639
- relative viability (NCI-H1355; first compound 0.1265 µM): 0.723
- relative viability (NCI-H1355; first compound 0.4 µM): 0.604
- relative viability (NCI-H1355; first compound 4 µM): 0.646
- relative viability (NCI-H2228; first compound 0.04 µM): 0.595
- relative viability (NCI-H2228; first compound 0.1265 µM): 0.498
- relative viability (NCI-H2228; first compound 0.4 µM): 0.423
- relative viability (NCI-H2228; first compound 4 µM): 0.383
- relative viability (SK-MES-1; first compound 0.04 µM): 0.444
- relative viability (SK-MES-1; first compound 0.1265 µM): 0.353
- relative viability (SK-MES-1; first compound 0.4 µM): 0.398
- relative viability (SK-MES-1; first compound 4 µM): 0.263
- relative viability (HARA; first compound 0.1265 µM): 0.204
- relative viability (HARA; first compound 0.4 µM): 0.34
- relative viability (HARA; first compound 4 µM): 0.258
- relative viability (NCI-H838; first compound 0.04 µM): 0.27
- relative viability (NCI-H838; first compound 0.1265 µM): 0.233
- relative viability (NCI-H838; first compound 0.4 µM): 0.221
- relative viability (NCI-H838; first compound 4 µM): 0.188
- relative viability (NCI-H2342; first compound 0.04 µM): 0.326
- relative viability (NCI-H2342; first compound 0.1265 µM): 0.292
- relative viability (NCI-H2342; first compound 0.4 µM): 0.29
- relative viability (NCI-H2342; first compound 4 µM): 0.306
- relative viability (NCI-H2347; first compound 0.04 µM): 0.329
- relative viability (NCI-H2347; first compound 0.1265 µM): 0.39
- relative viability (NCI-H2347; first compound 0.4 µM): 0.248
- relative viability (NCI-H2347; first compound 4 µM): 0.337
- relative viability (NCI-H1734; first compound 0.04 µM): 0.475
- relative viability (NCI-H1734; first compound 0.1265 µM): 0.489
- relative viability (NCI-H1734; first compound 0.4 µM): 0.5
- relative viability (NCI-H1734; first compound 4 µM): 0.517
- relative viability (COR-L23; first compound 0.04 µM): 0.588
- relative viability (COR-L23; first compound 0.1265 µM): 0.46
- relative viability (COR-L23; first compound 0.4 µM): 0.593
- relative viability (COR-L23; first compound 4 µM): 0.369
- relative viability (NCI-H522; first compound 0.04 µM): 0.775
- relative viability (NCI-H522; first compound 0.1265 µM): 0.773
- relative viability (NCI-H522; first compound 0.4 µM): 0.806
- relative viability (NCI-H522; first compound 4 µM): 0.828
- relative viability (NCI-H647; first compound 0.04 µM): 0.236
- relative viability (NCI-H647; first compound 0.1265 µM): 0.159
- relative viability (NCI-H647; first compound 0.4 µM): 0.161
- relative viability (NCI-H647; first compound 4 µM): 0.146
- relative viability (NCI-H2009; first compound 0.04 µM): 0.383
- relative viability (NCI-H2009; first compound 0.1265 µM): 0.29
- relative viability (NCI-H2009; first compound 0.4 µM): 0.305
- relative viability (NCI-H2009; first compound 4 µM): 0.155
- relative viability (NCI-H1793; first compound 0.04 µM): 0.403
- relative viability (NCI-H1793; first compound 0.1265 µM): 0.373
- relative viability (NCI-H1793; first compound 0.4 µM): 0.414
- relative viability (NCI-H1793; first compound 4 µM): 0.342
- relative viability (NCI-H1395; first compound 0.04 µM): 0.396
- relative viability (NCI-H1395; first compound 0.1265 µM): 0.387
- relative viability (NCI-H1395; first compound 0.4 µM): 0.366
- relative viability (NCI-H1395; first compound 4 µM): 0.368
- relative viability (COR-L 105; first compound 0.04 µM): 0.348
- relative viability (COR-L 105; first compound 0.1265 µM): 0.413
- relative viability (COR-L 105; first compound 0.4 µM): 0.383
- relative viability (COR-L 105; first compound 4 µM): 0.336
- relative viability (EKVX; first compound 0.04 µM): 0.576
- relative viability (EKVX; first compound 0.1265 µM): 0.568
- relative viability (EKVX; first compound 0.4 µM): 0.603
- relative viability (EKVX; first compound 4 µM): 0.475
- relative viability (UMC-11; first compound 0.04 µM): 0.475
- relative viability (UMC-11; first compound 0.1265 µM): 0.478
- relative viability (UMC-11; first compound 0.4 µM): 0.505
- relative viability (UMC-11; first compound 4 µM): 0.448
